This is an account of results in article PMC10108392, “Rimonabant-Based Compounds Bearing Hydrophobic Amino Acid Derivatives as Cannabinoid Receptor Subtype 1 Ligands” (ACS Medicinal Chemistry Letters, 2023).

Entries after “also recorded” stand apart in the source; their conditions may differ.

Test [1] has as its target T1, CB1R (Rattus norvegicus, UniProt P20272).
T1 construct: Crude membrane fractions were prepared from the brain; from tissue; host or cells: Wistar rat whole brain, crude membrane fraction
As to the kind of experiment: [3H]WIN55,212-2 radioligand competition binding assay in rat brain membrane homogenate. The note with it: for Ki: read-out: Ki [3H]WIN55,212-2 binding, 5 nM [3H]WIN55,212-2, ± SEM, n.b. = no binding of ligands was observed; for Ki [3H]WIN55,212-2 binding: 5 nM [3H]WIN55,212-2, ± SEM, n.b. = no binding of ligands was observed. On the procedure: (§1) Our novel chemical compounds were tested in vitro for their binding ability, efficacy, and potency on CB1R in rat brain membrane homogenate (Table 2 and SI, Figure S1). CB1Rs are the most abundant G-protein coupled receptors in the rodent and mammalian brain; therefore, this is an appropriate model to characterize our ligands in a more physiological system.
(§2) In Vitro Biological Assays
(§3) Preparation of Brain Membrane Homogenates
(§4) Wistar rats were locally bred and handled according to the EU Directive 2010/63/EU and to the Regulations on Animal Protection (40/2013. (II. 14.) Korm. r.) of Hungary. Crude membrane fractions were prepared from the brain. Brains were quickly removed from the euthanized rats and directly put in an ice-cold 50 mM Tris-HCl buffer (pH 7.4). The collected tissue was then homogenized in 30 volumes (v/w) of an ice-cold buffer with a Braun Teflon-glass homogenizer at the highest rpm. The homogenate was centrifuged at 20,000 × g for 25 min, and the resulting pellet was suspended in the same volume of a cold buffer followed by incubation at 37 °C for 30 min to remove endogenous ligands. Centrifugation was then repeated. The final pellets were taken up in five volumes of a 50 mM Tris-HCl (pH 7.4) buffer containing 0.32 M sucrose and stored at -80 °C. Prior to the experiment, aliquots were thawed and centrifuged at 20,000 ×g for 25 min and then they were resuspended in 50 mM Tris-HCl (pH 7.4), homogenized with a Douncer, followed by the determination of the protein concentration by the method of Bradford. The membrane suspensions were immediately used either in radioligand binding experiments or in [35S]GTPγS functional assays.
Radioligand Competition Binding Assay
Binding experiments were performed at 30 °C for 60 min in a 50 mM Tris-HCl binding buffer (pH 7.4) containing 2.5 mM of EGTA, 5 mM of MgCl2 and 0.5 mg/mL of fatty acid-free BSA in plastic tubes in a total assay volume of 1 mL that contained 0.3-0.5 mg/mL of a membrane protein. Competition binding […]
ligands. […] The incubation […]
was terminated by diluting the samples with an ice-cold wash buffer (50 mM of Tris-HCl, 2.5 mM of EGTA, 5 mM of MgCl2, 0.5% fatty acid free BSA, pH 7.4), followed by repeated washing and rapid filtration through Whatman GF/B glass fiber filters (Whatman Ltd., Maidstone, UK) pre-soaked with 0.1% polyethyleneimine (30 min before the filtration). Filtration was performed with a 24-well Brandel Cell Harvester (Gaithersburg, MD, USA). Filters were air-dried and immersed into Ultima Gold MV scintillation cocktail, and then radioactivity was measured with a TRI-CARB 2100TR liquid scintillation analyzer (Packard, Perkin Elmer, Waltham, MA, USA). […]
The results of the competition binding studies are reported as means ± S.E.M. of at least three independent experiments each performed in duplicate. In competition binding studies, the inhibitory constants (Ki) were calculated from the inflection points of the displacement curves using non-linear least-square curve fitting and the Cheng-Prusoff equation, Ki= […]/(1 + [ligand]/Kd). […]

In test [2] the target is T1, CB1R. As to the kind of experiment: Ligand stimulated [35S]GTPγS binding assay in rat brain membranes. It is filed as biochemical. The following applies: for CB1R functional profile (agonist / antagonist / inverse agonist): from [35S]GTPγS binding; for CB1R functional profile (agonist / antagonist / inverse agonist) / EC50: rat brain membranes; for Emax: read-out: [35S]GTPγS stimulation Emax; for EC50: ± SEM, read-out: [35S]GTPγS stimulation EC50. On the procedure: as §1, §2, §3
as §4, with “assays. […]” for “assays.”
was terminated by diluting the samples with an ice-cold wash buffer (50 mM of Tris-HCl, 2.5 mM of EGTA, 5 mM of MgCl2, 0.5% fatty acid free BSA, pH 7.4), followed by repeated washing and rapid filtration through Whatman GF/B glass fiber filters (Whatman Ltd., Maidstone, UK) pre-soaked with 0.1% polyethyleneimine (30 min before the filtration). Filtration was performed with a 24-well Brandel Cell Harvester (Gaithersburg, MD, USA). Filters were air-dried and immersed into Ultima Gold MV scintillation cocktail, and then radioactivity was measured with a TRI-CARB 2100TR liquid scintillation analyzer (Packard, Perkin Elmer, Waltham, MA, USA).
Ligand Stimulated [35S]GTPγS Binding Assay
Rat brain membranes (30 µg protein/tube), prepared as described above, were incubated with 0.05 nM of […]
mM of NaCl, 3 mM of MgCl2 and 1 mM of EGTA in a 50 mM Tris-HCl buffer (pH 7.4) for 60 min at 30 °C. Basal [35S]GTPγS binding was measured in the absence of ligands and set as 100%. Nonspecific […]
binding was determined by the addition of 10 µM unlabelled GTPγS and subtracted from total binding.
Incubation, filtration and radioactivity measurements of the samples were carried out as described above. […]
All […]
data and curves were analyzed by GraphPad Prism 5.0 (San Diego, CA, USA).

For a further test, the system named is mice. As to the kind of experiment: Feeding test (food intake). The class given is in vivo, mouse. The following applies: 10 mg/kg i.p., 1-h test, vs vehicle. On the procedure:
The tested compounds were injected i.p. (10 mg/kg), and after leaving for 30 min to allow the drug assimilation, mice were placed into individual cages with access to a predefined amount of their standard lab chow (2 g) for the 1-h test.
In Vivo Biological Assays
The international and national law and policies approved by Italian Ministry of Health were used to comply with all animal care and experimental procedures. Animal studies were advised in compliance with the ARRIVE guidelines and with the recommendations made by EU Directive 2010/63/EU for animal experiments and the Basel declaration including the 3Rs concept. CD-1 male mice (10-14 weeks of age, 25-30 g of weight) were bought from Charles River (Milan, Italy). Shortly after their arrival and for at least one week, they were kept in an animal care facility under controlled standard conditions of temperature (21 ± 1 °C), light (from 7:00 AM to 7:00 PM), and relative humidity (60 ± 10%). Access to drinking water and food was assured. All procedures were performed to decrease the number of animals used (n = 7 per group) and their distress.
The test was carried out as previously described. At 24 h before the start of a feeding test, all food was removed from the home cages of mice to be tested. The next day and at least 1 h before the feeding test began, the mice were transported to the laboratory. On test days, the animals were placed in the home cages for 30 min of drug assimilation, during which food was not available. Then compounds were intraperitoneally administered (10 mg/kg). Mice were transferred into transparent and individual plastic cages with thick white paper lining the bottom and access to a pre-measured amount of their regular lab chow (2 gr) for the 1-h test. At the end of 1 h, mice were repositioned into their home cage. The amount of food left in the trial cage, including crumbs, was measured, and the amount consumed was calculated.
Feeding trials normally happened on Tuesdays and Fridays between 12:00 and 14:00 h. […]

T1 sequence (P20272 whole entry): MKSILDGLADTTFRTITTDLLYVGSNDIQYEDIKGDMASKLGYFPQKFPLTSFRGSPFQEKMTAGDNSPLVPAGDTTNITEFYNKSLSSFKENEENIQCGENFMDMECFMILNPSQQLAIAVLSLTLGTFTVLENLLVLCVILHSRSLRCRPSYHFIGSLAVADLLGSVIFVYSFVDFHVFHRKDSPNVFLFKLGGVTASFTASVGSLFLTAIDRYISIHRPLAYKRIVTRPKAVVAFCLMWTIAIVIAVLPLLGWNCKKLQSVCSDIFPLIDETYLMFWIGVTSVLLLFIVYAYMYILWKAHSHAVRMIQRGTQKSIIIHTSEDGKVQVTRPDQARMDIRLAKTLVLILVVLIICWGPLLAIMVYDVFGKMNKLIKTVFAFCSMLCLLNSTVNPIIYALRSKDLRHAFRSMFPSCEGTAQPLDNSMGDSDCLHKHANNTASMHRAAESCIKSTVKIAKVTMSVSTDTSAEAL

Consider `COC(=O)[C@@H](NC(=O)c1nn(-c2ccc(Cl)cc2)c(-n2cccc2)c1C)C(C)(C)C` [Compound 24, RS2691-tLeu-OCH3], for which the Ki on CB1R [1] came to 17 ± 3.7 nM. In addition, at CB1R [2], the “CB1R functional profile (agonist / antagonist / inverse agonist)” value is reported as “inverse agonists; also recorded: strong antagonist” and the Emax turned out to be 99 ± 4%. The food intake result in the test on mice is “slight reduction in food intake”.
For `COC(=O)[C@@H](NC(=O)c1cc(-n2cccc2)n(-c2ccc(Cl)cc2)n1)C(C)C` [Compound 21, RS2689-Val-OCH3], on CB1R [1], the Ki is 261 ± 27 nM. In addition, on CB1R [2], the “CB1R functional profile (agonist / antagonist / inverse agonist)” value is given as “inverse agonists”, the concentration giving a half-maximal response (EC50) came to 1360 ± 139 nM and the maximal response (Emax) is 52 ± 4.8%. Also, in the test on mice, the food intake entry is “slight reduction in food intake”.
On the same counts, the results for `Cc1c(C(=O)N[C@H](C(N)=O)C(C)(C)C)nn(-c2ccccc2)c1-n1cccc1` [Compound 18, RS2709-tLeu-NH2] are 60 ± 6.1 nM, “inverse agonist”, 3320 ± 242 nM, 57 ± 13% and “slight reduction in food intake”.
For `Cc1c(C(=O)N[C@H](C(=O)O)C(C)C)nn(-c2ccc(Cl)cc2)c1-n1cccc1` [Compound 3, RS2691-Val-OH], the “Ki [3H]WIN55,212-2 binding” value on CB1R [1] is given as “n.b”. Further, the EC50 at CB1R [2] was > 10000 nM.
Consider `CNC(=O)[C@@H](NC(=O)c1cc(-n2cccc2)n(-c2ccccc2)n1)C(C)(C)C` [Compound 36, RS2708-tLeu-NHCH3], for which the Ki at CB1R [1] was determined as 616 ± 16 nM. Also, the “CB1R functional profile (agonist / antagonist / inverse agonist)” value at CB1R [2] is reported as “antagonists”.
Turning to `CC(C)(C)[C@H](NC(=O)c1cc(-n2cccc2)n(-c2ccccc2)n1)C(N)=O` [Compound 16, RS2708-tLeu-NH2], on CB1R [1], the Ki stood at 1470 ± 103 nM. In addition, the EC50 at CB1R [2] came out at 295 ± 38 nM.
Take `COC(=O)[C@@H](NC(=O)c1nn(-c2ccccc2)c(-n2cccc2)c1C)C(C)(C)C` [Compound 28, RS2709-tLeu-OCH3]: on CB1R [1], the Ki was found to be 369 ± 19 nM. Moreover, on CB1R [2], the concentration for a half-maximal effect (EC50) was 1030 ± 117 nM and the Emax stood at 55 ± 5%.
On to `COC(=O)[C@@H](NC(=O)c1nn(-c2ccc(Cl)cc2Cl)c(-n2cccc2Cl)c1C)C(C)C` [Compound 29, RS3516-Val-OCH3], for which the Ki at CB1R [1] stood at 30 ± 3.5 nM. Further, on CB1R [2], the “CB1R functional profile (agonist / antagonist / inverse agonist)” value was “inverse agonists”, the EC50 amounted to 2840 ± 118 nM and the Emax was 44 ± 10%. In the test on mice, the food intake entry is listed as “strong anorexic effect comparable to that of rimonabant”.
With `CC(C)(C)[C@H](NC(=O)c1cc(-n2cccc2)n(-c2ccc(Cl)cc2)n1)C(=O)O` [Compound 2, RS2689-tLeu-OH], at CB1R [1], the “Ki [3H]WIN55,212-2 binding” value is “n.b”. The EC50 at CB1R [2] was 712 ± 18 nM.
As for `Cc1c(C(=O)N[C@H](C(=O)O)C(C)(C)C)nn(-c2ccccc2)c1-n1cccc1` [Compound 8, RS2709-tLeu-OH], the “Ki [3H]WIN55,212-2 binding” value on CB1R [1] was “n.b”. Moreover, the EC50 on CB1R [2] stood at 3400 ± 118 nM.
Take `Cc1c(C(=O)N[C@H](C(=O)O)C(C)C)nn(-c2ccc(Cl)cc2Cl)c1-n1cccc1Cl` [Compound 9, RS3516-Val-OH]: the “Ki [3H]WIN55,212-2 binding” value on CB1R [1] is reported as “n.b”. Also, the EC50 on CB1R [2] is 3430 ± 283 nM.
As to `Cc1c(C(=O)N[C@H](C(=O)O)C(C)(C)C)nn(-c2ccc(Cl)cc2)c1-n1cccc1` [Compound 4, RS2691-tLeu-OH], the Ki at CB1R [1] was found to be 5880 ± 152 nM. For the same compound, the EC50 on CB1R [2] came out at 4610 ± 303 nM.
On the same counts, the results for `COC(=O)[C@@H](NC(=O)c1nn(-c2ccc(Cl)cc2)c(-n2cccc2)c1C)C(C)C` [Compound 23, RS2691-Val-OCH3] are 55 ± 5.2 nM and 4870 ± 225 nM.
On the same counts, the results for `COC(=O)[C@@H](NC(=O)c1nn(-c2ccc(Cl)cc2Cl)c(-n2cccc2Cl)c1C)C(C)(C)C` [Compound 30, RS3516-tLeu-OCH3] are 21 ± 4.4 nM and 4390 ± 344 nM.
For `CNC(=O)[C@@H](NC(=O)c1nn(-c2ccc(Cl)cc2Cl)c(-n2cccc2Cl)c1C)C(C)C` [Compound 39, RS3516-Val-NHCH3], at CB1R [1], the “Ki [3H]WIN55,212-2 binding” value was “modest affinity” and the Ki is 185 ± 17 nM. Moreover, at CB1R [2], the “CB1R functional profile (agonist / antagonist / inverse agonist)” value is given as “weak inverse agonist” and the EC50 came to 3540 ± 193 nM.
With `CNC(=O)[C@@H](NC(=O)c1nn(-c2ccccc2)c(-n2cccc2)c1C)C(C)C` [Compound 37, RS2709-Val-NHCH3], at CB1R [1], the “Ki [3H]WIN55,212-2 binding” value was “modest affinity” and the Ki stood at 1060 ± 85 nM. Also, at CB1R [2], the “CB1R functional profile (agonist / antagonist / inverse agonist)” value is listed as “weak inverse agonist”, the EC50 was 7080 ± 398 nM and the Emax was determined as 55 ± 9%.
`CNC(=O)[C@@H](NC(=O)c1nn(-c2ccc(Cl)cc2)c(-n2cccc2)c1C)C(C)C` [Compound 33, RS2691-Val-NHCH3]: the Ki on CB1R [1] turned out to be 168 ± 16 nM. Also, the “CB1R functional profile (agonist / antagonist / inverse agonist)” value on CB1R [2] is “antagonists”.
